Experimental data taken from patent publication US20100256217A1, “ANTIVIRAL INHIBITION OF CASEIN KINASE II” (The Trustees of the University of Pennsylvania, priority 2006, published 2010).
Entries after “also recorded” stand apart in the source; their conditions may differ.

How the values were obtained:
recombinant CK2 = target: T1, recombinant CK2 (Homo sapiens, UniProt P68400); test: In vitro CK2 kinase assay with recombinant WNV C as substrate; format: biochemical; settings: 32P-ATP or 32P-GTP as donor; autoradiography
T1 construct: purchased Biomol Research Laboratories (Plymouth Meeting, Pa.)
T1 sequence (P68400 whole entry): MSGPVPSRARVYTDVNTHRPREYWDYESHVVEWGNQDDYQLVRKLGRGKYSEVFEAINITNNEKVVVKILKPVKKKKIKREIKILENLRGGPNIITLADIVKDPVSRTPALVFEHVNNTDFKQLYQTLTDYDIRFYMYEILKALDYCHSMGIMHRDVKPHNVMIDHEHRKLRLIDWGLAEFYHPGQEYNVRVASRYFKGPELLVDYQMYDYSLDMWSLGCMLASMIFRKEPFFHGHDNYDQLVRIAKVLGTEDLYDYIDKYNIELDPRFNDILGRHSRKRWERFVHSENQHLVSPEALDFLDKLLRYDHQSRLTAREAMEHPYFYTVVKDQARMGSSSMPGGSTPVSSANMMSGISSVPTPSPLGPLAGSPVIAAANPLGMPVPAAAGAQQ
T1 sequence (P67870 whole entry partner): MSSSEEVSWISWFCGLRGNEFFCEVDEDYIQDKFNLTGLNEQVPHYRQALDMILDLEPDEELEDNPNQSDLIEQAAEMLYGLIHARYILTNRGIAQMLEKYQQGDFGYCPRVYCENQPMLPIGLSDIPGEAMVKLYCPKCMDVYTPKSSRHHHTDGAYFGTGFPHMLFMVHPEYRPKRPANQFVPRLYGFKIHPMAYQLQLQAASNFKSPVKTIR
Procedure: In vitro protein kinase assays. In vitro phosphorylation assays were routinely done with the recombinant Cp proteins with the recombinant CK2 (Biomol, Pa.) in a 20 μl-reaction volume. Reaction mixtures (20 μL) contained 25 mM Hepes, pH 7.4, 2 mM MnCl2 or 5 mM MgCl2, 1.6 μCi of -^32P-GTP or […] (Amersham Pharmacia Biotech), and 0.5 to 1 μg of purified His-tagged WNV Cp as a substrate. Histone 1B (Calbiochem) protein was used as positive control. The phosphorylation reaction was started by the addition of ^32P-ATP or ^32P-GTP and the reaction was carried out for 30 min at 30 C. The kinase assays were arrested by the addition of 20 μl of SDS-sample buffer and the reaction mixtures were boiled for five minutes. Phosphorylated proteins were separated in SDS PAGE and proteins ere visualized by autoradiography.
Purified rC fractions from E. coli cells (M15[pREP4+pQE-WNV C]) were subjected to subsequent kinase assays. Using purified CK2 enzyme, in vitro assay was performed with ^32P-ATP as a phosphate donor to examine possible role of CK2 in the phosphorylation of WNV C. […] CK2 is unique among protein kinases in its ability to use both ATP and GTP as phosphoryl group donors. Another biochemical property of CK2 that makes it different from other kinases is its high sensitivity to inhibition by heparin.

WNV [1] = test: WNV release from infected 293 cells, ELISA with anti-E antibody; format: cell-based, West Nile virus; settings: 4 MOI, 48 h post infection
From the text: FIG. 6 includes panels A and B. Both reduced CK2 activity and depletion of CK2 transcripts affects viral release. FIG. 6 panel A: Depletion of CK2 transcripts reduced viral replication. As described earlier, the cells were transfected with full-length infectious clone along with siRNA-CK2α and siRNA-CK2β molecules. Lane 1 depicts the amount of viral release from the plates that were not treated with any of siRNA molecules. […] FIG. 6 panel B: Effect of cell-permeable CK2-inhibitor on viral release. 293 cells were infected with infectious WNV samples, propagated from an infectious clone of WNV.
In the context of whole virus, we examined whether inhibition of cellular CK2 affects WN viral release. We generated high titer of viral sample from Vero cells transfected with full length infectious clone (Pierson et al 2005). We harvested culture fluid at regular intervals, determined viral titre by routine Plaque assays and used them for infection assays. […] Forty-eight hours post infection, viral release was monitored by both plaque assays as well as ELISAs measuring the presence of […] using monoclonal anti E antibody. FIG. 6B depicts the release of viral molecules from WNV-infected cells as measured by ELISA using anti-E antibody. […] While the inhibition of cellular CK2 activity results in the reduced viral load, it is presumable that depletion of CK2 transcripts also could cause similar effect. In order to test this, in the second approach, WNV release was evaluated under the conditions where expression of CK2 subunits was knocked out. Cellular CK2 was knocked out by using siRNA molecules that specifically target CK2α and CK2β transcripts. siRNA-CK2α and siRNA-CK2β molecules were used to deplete cellular transcripts of CK2. 293 cells were infected with infectious WNV followed by the treatment with either siRNA control molecules or siRNA-CK2α or siRNA-CK2β molecules. Release of WNV was monitored from these plates. […] We also observed severe impairment of capsid phosphorylation in the pulse-chase studies under the influence of siRNA molecules.

[2] = system: CK2-mediated phosphorylation of WNV C in Vero cells; test: In vivo 32P labeling and immunoprecipitation of WNV C from transfected cells under DRB; format: cell-based, African green monkey; settings: cells transfected with pcWNV C-His; DRB 100, 500 and 1000 μM; anti-His immunoprecipitation
Procedure: In vivo ^32P-Orthophosphate labeling and WNV C immunoprecipitation. In order to check whether Cp is phosphorylated in vivo also, Capsid-transfected cells were pulse-chased with […] and their lysates were analyzed for the detection of phosphorylated capsid proteins by Immunoprecipitation. HeLa cells were grown in DMEM medium supplemented with 10% FBS until they were subconfluent. The cells were transfected with WNV Cp constructs and DOTAP/DNA containing media were replaced after about 6-hours with media with/without […]. DBS was added to a final concentration of 0.1, 0.5 and 1.0 mM. The Control cells were treated with DMSO alone. Phospholabeling and immunoprecipitation of WNV CP were performed as described previously. […] WNV CP was precipitated with anti-His monoclonal antibody (Scil Diagnostics, Martinsried, Germany). […] The immunoprecipitated capsid proteins were eluted from the protein G-agarose by boiling them for 5 min and analyzed by SDS-PAGE, followed by autoradiography.
Subsequent to the identification and characterization of CK2-mediated phosphorylation of the rC in vitro, we wanted to study this phenomenon in vivo. […] The lysates from the matching controls that were not exposed to radioactivity, were analyzed separately for capsid expression. […]

WNV [3] = test: WNV titers by plaque assay on Vero cells; format: cell-based, West Nile virus; settings: DRB at different doses (FIG. 7B)
Procedure: The inhibited level of viral release indicates the siRNA-CK2 mediated effects are statistically significant.
Virus titration by plaque assay. Virus production was titered by plaque assays using Vero cells. For routine analysis, cells were seeded in 6-well (6×10^5 cells/well) or 12-well (3×10^5 cells/well) plates in -MEM with 10% FBS for 3 h at 37° C. Medium was removed, serial dilutions of virus supernatants in -MEM with 2% FBS were added (0.30 ml/well for 6-well plates and 0.15 ml/well for 12-well plates), and the cells were incubated for 2 h at 37° C. […] Virus concentrations are determined as PFU per milliliter.
In the context of whole virus, we examined whether inhibition of cellular CK2 affects WN viral release. […] We harvested culture fluid at regular intervals, determined viral titre by routine Plaque assays and used them for infection assays. […] Forty-eight hours post infection, viral release was monitored by both plaque assays as well as ELISAs measuring the presence of […] using monoclonal anti E antibody. FIG. 6B depicts the release of viral molecules from WNV-infected cells as measured by ELISA using anti-E antibody. […] In order to test this, in the second approach, WNV release was evaluated under the conditions where expression of CK2 subunits was knocked out. […] Release of WNV was monitored from these plates. […]

capsid-containing VLPs = test: ELISA of capsid from culture fluid (secretion of capsid-containing VLPs); format: cell-based; settings: DRB added to culture medium; anti-C ELISA
From the text: Quantification of the protein C in ELISA from the supernatants of transfected cells. The ability of unprocessed and truncated capsid proteins to participate in the budding was assed by ELISA from culture fluid of transfected cells. In 6 cm plates, the cells were transfected with full-length capsid (123 aa) or truncated capsid (105 aa) or C(S36A) plasmids or in combination with WNV M and E-expressing constructs. Forty eight hours post-transfection, the supernatants were collected and analyzed for viral budding. One hundred microliters of supernatants were plated in triplicate, in a serial dilution series (dilutions in carbonate bicarbonate buffer) on a high protein binding EIA/RIA 96 well plate (Costar) and incubated at 4° C. overnight. In addition to the supernatants from experimental samples, a mock-transfected and untransfected media control is also added to the assay samples. Moreover, a series of wells are used as negative controls for the assay in that no supernatant is added to these wells only carbonate bicarbonate buffer. After 3 washes with PBS, nonspecific binding sites are blocked with 3% BSA in PBS solution, for 2 hours at room temperature. […] The reaction is terminated by adding 4N H2SO4 and protein levels are measured using an ELISA reader (Molecular Diagnostics) at 450 nm. […]

Row | Compound | heparin concentration at which the ability of CK2 to phosphorylate C was adversely affected (recombinant CK2) | phosphorylation of C by CK2 in vitro (recombinant CK2) | viral release (WNV [1]; DRB 5 uM) | viral release (WNV [1]; DRB 10 uM) | viral release (WNV [1]; DRB 50 uM) | in vivo phosphorylation of WNV C [2] | WNV replication and release into culture medium by plaque assay (WNV [3]) | level of capsid in the culture fluid (capsid-containing VLPs)
1 | heparin | above 10 uM | severely inhibited; also recorded: severely impaired in a dose dependent manner |  |  |  |  |  | 
2 | OC[C@H]1O[C@@H](n2cnc3cc(Cl)c(Cl)cc32)[C@H](O)[C@@H]1O [DRB, 5,6-Dichloro-1-b-D-ribofuranosylbenzimidazole] |  |  | significantly reduces viral release | reduced by almost one fold | completely effective at blocking viral release | severely inhibited; also recorded: specifically blocks the phosphorylation of capsid; also recorded: adversely inhibited | dose dependent | significantly reduced the level of capsid from the culture fluid
